Measurements as given in US5093477A, “Rapidly cleavable substrate for HIV protease” (priority 1988, dated 1992).
Where a SMILES comes first, the peptide text is derived from it. [ ]: non-standard residue; d: D form. The star is where a group is joined. Sta = CC(C)C[C@H](N)[C@@H](O)CC(=O)O; Isovaleryl = CC(C)CC(=O)*

Experiments:
Assay type in all cases: biochemical
[1] = molecular target: T1, HIV protease (Human immunodeficiency virus type 1 group M subtype B, UniProt P04585); experiment: HIV protease inhibitor test with Ser-Phe-Asn-Phe-Opr-Gln-Ile as substrate; settings: substrate Ser-Phe-Asn-Phe-Opr-Gln-Ile 2 mg/ml, HIV protease No. I (1:10), blank 33.62 %
T1 construct: The enzyme is composed of only 99 amino acids and evidently eliminates itself from the pol gene
Experimental: A) General procedure for testing inhibitors of HIV protease with Ser-Phe-Asn-Phe-Opr-Gln-Ile
2 mg of Ser-Phe-Asn-Phe-Opr-Gln-Ile are dissolved in 1 ml of MGTE15 buffer (possibly using ultrasound) and subsequently filtered through a sterile filter (0.45 μm).
2.5 times the desired molarity of the inhibitor per ml of solution are weighed in and dissolved in DMSO (10% of the final volume). The solution is diluted to the final volume with MGTE15 buffer and filtered through a sterile filter (0.45 μm).
5 μl of the HIV protease solution are diluted with MGTE25 buffer as required.
10 μl portions of the substrate solution are pipetted into test tubes (16×100) with screw caps. 10 μl of MGTE15 buffer which contains 10% DMSO are pipetted into the blank. 10 μl portions of the inhibitor solutions are added to the remaining test tubes. These samples are incubated at 37° C. for 5-10 minutes and then 5 μl of the protease solution are added to each. After reaction at 37° C. for 2 hours, 10 or 20 μl of each sample (depending on the sensitivity of the HPLC apparatus) are removed by pipette, placed in microvials and diluted with 120 μl of the HPLC solvent.
(§1) Solvent system: 80% 0.1 M phosphoric acid pH 2.5. 20% (w/w) acetonitrile
(§2) Column: Merck ®LICHROSORB RP18 (5 μm) 250×4
(§3) Column temperature: 42° C.
(§4) Detector parameters: 215 nm, 0.08 AUF, 18.2° C.
(§5) Analysis time: 11 minutes
The % content of the tetrapeptide peak relative to the tetrapeptide+heptapeptide total corresponds to the proportion cleaved.

[2] = molecular target: T1, HIV protease; experiment: HIV protease kinetics: cleavage of peptide substrates followed by HPLC (Tab. 1-4); settings: substrate 4 mg/ml, HIV protease No. II (5 μl)
Experimental: e) Conditions for HPLC analysis:
as §1, §2, §3, §4, §5
Retention time of the substrate: 8.1 minutes
Retention time of the N-terminal tetrapeptide: 3.9 minutes
Under the conditions chosen here, the heptapeptides are separated from the N-terminal tetrapeptide produced in the enzymatic cleavage. The % content of the tetrapeptide peak relative to the tetrapeptide+heptapeptide total corresponds to the proportion cleaved.
B) Procedure for HIV protease kinetics (Tab. 1-4)
10 μl of substrate solution (2-4 mg/ml) in MGTE15 buffer and 10 μl of MGTE15 buffer which contains 10% dimethyl sulfoxide are combined and incubated at 37° C. for 5-10 minutes. 5 μl of the HIV protease solution in MGTE25 buffer are added to this, and the mixture is shaken at 37° C. […] The microliter syringe is used to load the total amount onto the HPLC column. HPLC conditions as in A).

[3] = molecular target: T1, HIV protease; experiment: HIV protease kinetics: comparison of the cleavage rate of several substrates (Tab. 6); settings: substrate 2 mg/ml, HIV protease No. II (1:4)
Experimental: C) Procedure for the HIV protease kinetics (Tab. 6) 10 μl of substrate solution (2 mg/ml) in MGTEl5 buffer and 10 μl of MGTE15 buffer are combined and incubated at 37° C. for 5-10 minutes. 5 μl of HIV protease No. II (diluted 1:4 with MGTE25 buffer) are added to this, and the mixture is shaken at 37° C. Subsequent procedure as in B).
Column: Merck HIBAR ®LICHROSORB RP8 (7 μm) 250×4
Flow rate: 1 ml min for SFNFPQI and SFNFOQI 0.5 ml/min for […] and VSQNYOIVQ. Otherwise as in Ae).

Compound	% tetrapeptide = % cleavage ([3]; 5 min) [%]	% tetrapeptide = % cleavage ([3]; 10 min) [%]	% tetrapeptide = % cleavage ([3]; 20 min) [%]	% tetrapeptide = % cleavage ([3]; 40 min) [%]	% tetrapeptide = % cleavage ([3]; 80 min) [%]	% tetrapeptide = % cleavage ([3]; 160 min) [%]	% tetrapeptide = % cleavage ([3]; 320 min) [%]	further results
CC(C)CC(=O)N[C@H](C(=O)N[C@H](C(=O)N[C@@H](CC(C)C)[C@@H](O)CC(=O)N[C@@H](C)C(=O)N[C@@H](CC(C)C)[C@@H](O)CC(=O)O)C(C)C)C(C)C [Pepstatin A] (Isovaleryl-VV[Sta]A[Sta]-OH)								Cleavage (%) ([1]; inhibitor 10^-4 M): 1.25%; Cleavage (%) ([1]; inhibitor 10^-5 M): 4.73%; Cleavage (%) ([1]; inhibitor 10^-6 M): 18.22%; Cleavage (%) ([1]; inhibitor 10^-7 M): 25.09%
H-SFNFPQI-OH [SFNFPQI, H-Ser-Phe-Asn-Phe-Pro-Gln-Ile-OH]	0.25	4.68	7.01	11.34	19.50	34.19	48.18	% cleavage after 5 minutes' cleavage time (text summary of Tab. 1 and 2) ([2]; 5 minutes, both experiments): about 4%; % cleavage ([2]; Experiment A, 5 min): 4.00%; % cleavage ([2]; Experiment A, 10 min): 8.19%; % cleavage ([2]; Experiment A, 20 min): 14.57%; % cleavage ([2]; Experiment A, 40 min): 23.40%; % cleavage ([2]; Experiment A, 80 min): 39.43%; % cleavage ([2]; Experiment A, 160 min): 58.39%; % cleavage ([2]; Experiment A, 320 min): 70.16%; % cleavage ([2]; Experiment B, 5 min): 4.15%; % cleavage ([2]; Experiment B, 10 min): 7.54%; % cleavage ([2]; Experiment B, 20 min): 14.35%; % cleavage ([2]; Experiment B, 40 min): 23.00%; % cleavage ([2]; Experiment B, 80 min): 37.68%; % cleavage ([2]; Experiment B, 160 min): 57.11%; % cleavage ([2]; Experiment B, 320 min): 72.51%
H-VSQNYPIVQ-OH	3.66	6.53	11.31	20.32	31.49	55.00	62.48	
H-Val-Ser-Gln-Asn-Tyr-Opr-Ile-Val-Gln-OH [VSQNYOIVQ]	10.27	20.72	40.47	60.50	88.98	100.00	100.00	
